Legend:
[1] = Reversed-phase HPLC retention as measure of lipophilicity; details: reversed-phase C18, Fig. S4-b; corroborates calculated lipophilicity
[2] = molecular target: Human Cyclophilin A (Homo sapiens, UniProt P62937); experiment: PPIase TR-FRET competitive binding assay
Method: PPIase TR-FRET competitive binding assay
Cyclophilin A assays were conducted by Eurofins Integrated Discovery UK Ltd (EID) to determine the inhibitory activity of the analogues against the Human Cyclophilin A in a TR-FRET Competitive Binding assay. Assays were performed in duplicate, with Kd values calculated from mean averages. […]
binding to the CypA enzyme: the CypA enzyme, tagged with a polyhistidine sequence, forms a complex with an anti-6xHis antibody labelled with a fluorescent donor, F(d), and the enzyme […]
Compounds are diluted from DMSO stocks to 50-fold the final concentration and then in assay buffer to 2-fold the final assay plate concentration. An equal volume of compound is added to the master mix in the assay plate containing the enzyme/antibody/ligand complex, with a final concentration of detergent of 0.01%. This is incubated for 30 mins at room temperature and the plate read at 2 wavelengths (A and B) to detect emission from F(d) and F(a), respectively. The ratio B/A is calculated, blank subtracted and either expressed as a percentage of the ‘no inhibitor’ control or the blank subtracted values are plotted against the inhibitor concentration in Log10 Molar and fitted using one site Ki nonlinear regression to determine the Kd. Where possible, compound Kds are determined from duplicate data points. Each assay plate is set up with ‘no enzyme’ blanks and ‘no inhibitor’ controls, which are used to determine the Z’ value for each plate.

[3] = test system: calcineurin in the presence of Cyclophilin A; experiment: Calcineurin inhibition assay (phosphatase activity in the presence of Cyclophilin A); type: biochemical
Method: Calcineurin inhibition assay
Calcineurin inhibition assays were conducted by Eurofins Integrated Discovery UK Ltd (EID) to determine the effect of compounds on the activity of calcineurin in the presence of Cyclophilin A. Assays were performed in duplicate, with IC50 values calculated from mean […]
Compounds were diluted with and without immunophilin (CypA) in a 96-well plate. After addition of calcineurin/calmodulin complex, the plate was incubated at 30 °C for 10 minutes.
The addition of the RII phosphopeptide substrate initiated the reaction, and the plate was […]
The reaction was stopped by the addition of Malachite green reagent. The plate was incubated at room temperature to allow colour development (5 – 20 mins). After sufficient colour has developed, the absorbance is read at 620 nm. Blank subtracted absorbance readings are plotted against compound concentration to determine IC50 values or % inhibition at the top concentration.

[4] = test system: Jurkat cells; experiment: IL-2 release assay, Jurkat cells stimulated with anti-CD3/anti-CD28; type: cell-based, human; details: for IL-2 levels, Mean: mean of three replicates normalized to the vehicle control
Method: Interleukin-2 (IL-2) release assays were conducted by Eurofins Pan Labs to determine ability for the analogues to inhibit IL-2 secretion from Jurkat cells following stimulation with anti-CD3 and anti-CD28 for a period of 24 hours. Data shown are means of three replicates normalized to the vehicle control
1) Cryopreserved Jurkat cells were thawed and cultured according to established protocols for four days at 37°C, 5% CO2 prior to assay.
2) Jurkat cells were harvested and seeded into 96-well plates at a density of 2x10^5 cells/well with […]
penicillin/streptomycin, and 2 mM L-glutamine).
3) Cells were incubated at 37°C, 5% CO2 for 1 hour prior to the addition of test agents.
4) The test agents were serially diluted in DMSO to 1000X assay concentrations, then further diluted to 20X assay concentrations in culture medium. The reference inhibitor Cyclosporin A (Sigma Aldrich catalog #C1832) was diluted to 1000X assay concentrations in DMSO before dilution to 20X assay concentration in culture medium.
5) The test agents, reference inhibitor, and diluted vehicle controls were added to the cells in volumes of 10 μL in triplicate and incubated for 1 hour at 37°C, 5% CO2. […]
concentrations in culture medium. The corresponding isotype controls were diluted to 5X assay concentrations in culture medium.
7) Diluted anti-CD3/anti-CD28 was added to test agent and positive control wells in volumes of 40 μL according to the plate map. Isotype controls were added to the isotype control wells.
Culture medium was added to vehicle and unstimulated control wells. […]
assay volumes of 200 μL and control concentrations of 50 ng/mL cyclosporin A (reference inhibitor), 0.1% DMSO (vehicle), 15 μg/mL anti-CD3, and 15 μg/mL anti-CD28.
8) Cells were incubated for 24 hours at 37°C, 5% CO2.
9) At the end of the incubation period, plates were centrifuged at 200g for 10 minutes. Cell culture supernatants were collected and stored at -80°C until needed for analysis.
Data Analysis and Analyte Limits of Detection
IL-2 cytokine levels in cell culture supernatants were determined using Luminex methodology per the manufacturer’s protocol using the Human Cytokine/Chemokine/Growth Factor Panel A Kit from Millipore Sigma (catalog #HCYTA-60K) with standard ranges and limits of detection in Table S9. Levels of each cytokine were interpolated from standard curves using non-linear regression analysis in Belysa Software (Millipore Sigma). The raw data in the form of median fluorescence unit was interpolated into test concentrations (pg/mL). The interpolated data were then normalized to the vehicle control
Table S9. Analyte limit of detection
Analyte Lowest standard (pg/mL) Highest standard (pg/mL) Sensitivity (pg/mL) […]
Reported mean values (pg/mL) are from three biological replicates normalized to the vehicle […]
Fig. S5. IL-2 release by Jurkat cells following stimulation with anti-CD3/anti-CD28 and treatment with the indicated test agent for 24 hours. Error bars indicate the standard error of the […]

[5] = in vitro; details: human
Method: Metabolic stability assay
Hepatic microsomal stability assays were conducted by Charles River Laboratories. Assays were performed in duplicate.
The stability of the test compound (1 µM) was measured following incubation at 37 °C with […] (0.5 mg protein/mL) in the presence of the cofactor, NADPH.
Incubates were prepared in duplicate, with aliquots removed at 0, 5, 10, 20 and 40 minutes and reactions terminated, and the compound was extracted by the addition of solvent. The disappearance of the parent compound was be monitored by LC-MS/MS and the half-life determined over the time-course of incubation. The half-life value was used to calculate the in vitro intrinsic clearance expressed as µL/min/mg protein.
Table S11. Metabolic Stability Data
Half- Half- Half- Clint Clint Mean Clint
Compound Cofactor life life Life (uL/min/mg (uL/min/mg (uL/min/mg Species (min) (min) (min) protn) n=1 protn) n=2 protn) (results)

Chain of Human Cyclophilin A (P62937 whole entry): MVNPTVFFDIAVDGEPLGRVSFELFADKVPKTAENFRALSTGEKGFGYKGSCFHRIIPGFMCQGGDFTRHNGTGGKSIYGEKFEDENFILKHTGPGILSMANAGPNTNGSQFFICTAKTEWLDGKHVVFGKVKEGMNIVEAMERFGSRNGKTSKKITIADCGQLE

## C/C=C/CC[C@@H](C)[C@@H](O)[C@H]1C(=O)N[C@@H](CC)C(=O)N(C)CC(=O)N(C)[C@@H](CC(C)C)C(=O)N[C@@H](C(C)C)C(=O)N(C)[C@@H](CC(C)C)C(=O)N[C@@H](C)C(=O)N[C@H](C)C(=O)N(C)[C@@H](CC(C)C)C(=O)N(C)[C@@H](CC(C)C)C(=O)N(C)[C@@H](C(C)C)C(=O)N1C [compound 21, E-homo Cyclosporine-A]
[1]
  increase of HPLC retention time upon each homologation event: ~ 2.5 minutes
[2]
  Kd: 76.7 nM
[3]; in vitro calcineurin phosphatase activity assay
  decrease in phosphatase activity compared with cyclosporine A: 3.5 fold
[3]; with CypA, calcineurin/calmodulin, RII phosphopeptide substrate, 30 °C 45 min, Malachite green A620, duplicate, IC50 from mean averages
  IC50: 401 nM
[4]; at high concentrations (≥1 µM), Jurkat T cells
  suppression of IL-2 secretion (in words): effectively suppressed IL-2 secretion
[4]; test agent 0.10 µM
  IL-2 levels, Mean: 11.7 pg/mL
[4]; test agent 0.32 µM
  IL-2 levels, Mean: 3.5 pg/mL
[4]; test agent 1.0 µM
  IL-2 levels, Mean: 1.6 pg/mL
[4]; test agent 3.2 µM
  IL-2 levels, Mean: 1.1 pg/mL
[4]; test agent 10 µM
  IL-2 levels, Mean: 1.0 pg/mL
[5]; both, liver microsomes
  half-life at 1 µM: 32 min
[5]
  Clint (uL/min/mg protn) n=1: 40 uL/min/mg protn
  Clint (uL/min/mg protn) n=2: 46 uL/min/mg protn
  Half-life (min) n=1: 35 min
  Half-life (min) n=2: 30 min
  Mean Clint (uL/min/mg protn): 43 uL/min/mg protn

— article PMC12221989, “One-carbon homologation of alkenes” (Nature, 2025)
